Like-named read-outs stand apart in the source and are kept apart here.
Tests used:
OCI-AML3 cell line = test: MTS assay for cell growth/viability; assay type: cell-based; details: Homo sapiens
Procedure: MTS assay for cell growth/viability: Mitochondrial activity was measured to determine cell proliferation using an MTS assay (tetrazolium dye 3-[4,5-dimethylthiazol-2-yl]-2,5-diphenyl-tetrazolium bromide). Metabolically active cells convert MTS tetrazolium salt into a purple formazan product that is soluble in tissue culture medium. The amount of formazan measured at 490 nm absorbance is proportional to the number of proliferating cells. MTS assays in AML cell lines were carried out with 20K cells plated per well in 96-well plates with Cpd3 or brequinar in a dose series ranging from 0.0001 to 10 μM. Triplicate wells were set up for each condition. At 96 hours, the MTS reagent was added and after approximately 4 hours the plates were read in a spectrophotometer.
(§1) Biological Activity. Cell proliferation assays were carried out using the MTS assay described herein using an AML cell line (i.e., OCI-AM L3) as described above. The assays were carried out in a blinded fashion. Assays were also carried out to assess the effect of representative disclosed compounds on DHODH activity.

h-DHODH = target: T1, h-DHODH (Homo sapiens, UniProt Q02127); test: DHODH enzymatic assay (DCIP reduction at 600 nm); assay type: biochemical; details: recombinant human enzyme, 25° C.
T1 construct: made in house
T1 sequence (Q02127 whole entry): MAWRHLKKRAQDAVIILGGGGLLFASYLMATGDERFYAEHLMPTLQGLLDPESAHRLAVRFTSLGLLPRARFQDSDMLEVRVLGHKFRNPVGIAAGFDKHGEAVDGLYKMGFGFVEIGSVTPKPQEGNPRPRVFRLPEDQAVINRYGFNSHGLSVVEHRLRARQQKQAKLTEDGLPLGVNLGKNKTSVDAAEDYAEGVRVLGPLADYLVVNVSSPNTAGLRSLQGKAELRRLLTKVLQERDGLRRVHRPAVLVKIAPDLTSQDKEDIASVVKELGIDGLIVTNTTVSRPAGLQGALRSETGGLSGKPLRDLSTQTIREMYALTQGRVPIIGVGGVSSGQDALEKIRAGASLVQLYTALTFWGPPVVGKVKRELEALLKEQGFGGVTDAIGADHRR
Procedure: DHODH Enzymatic Assay: DHODH activity was determined at 25° C. following the reduction of 2,6-dichloroindophenol sodium salt (DCIP) at 600 nm (ε=18 800 M^−1 cm^−1) on a spectrophotometer. The reaction medium used contained 50 mM Tris-HCl, pH 8.0, 0.1% Triton X-100, 0.1 mM LDHO, 0.025 mM CoQ1, and 0.06 mM DCIP. The reaction was started by addition of the enzyme. The inhibitory potency of the compounds was evaluated by measuring the initial velocity of the reaction either in the absence or in the presence of the compounds at the indicated concentrations. The DHODH enzyme used was the recombinant human enzyme prepared as previously described (Hélène Munier-Lehmann, et al., J. Med. Chem. 2015, 58:860-877).
as §1

[1] = OCI-AML-3, 96 hours, read-out: OCI-AML3 cell line IC50
[2] = OCI-AML-3, read-out: growth arrest in the OCI-AML3 cell line, IC50

IC50 (OCI-AML3 cell line; [1])	IC50 (OCI-AML3 cell line; [2])	IC50 (h-DHODH)	Structure (SMILES)
0.413 µM	0.41 to 0.79 µM	0.058 µM	CCOc1ccc(-c2csc(-c3cc(C(=O)O)c4cc(F)ccc4n3)c2)cc1 [Cpd1, 2-(4-(4-ethoxyphenyl)thiophen-2-yl)-6-fluoroquinoline-4-carboxylic acid]
0.79 µM	0.41 to 0.79 µM	0.212 µM	CCOc1ccc(-c2ccc(-c3cc(C(=O)O)c4cc(F)ccc4n3)s2)cc1 [Cpd2, 2-(5-(4-ethoxyphenyl)thiophen-2-yl)-6-fluoroquinoline-4-carboxylic acid]
10.9 µM	–	0.2 µM	CCOc1cccc(-c2csc(-c3cc(C(=O)O)c4cc(F)ccc4n3)c2)c1 [Cpd3, 2-(4-(3-ethoxyphenyl)thiophen-2-yl)-6-fluoroquinoline-4-carboxylic acid]
3.35 µM	–	0.223 µM	CCOc1cccc(-c2ccc(-c3cc(C(=O)O)c4cc(F)ccc4n3)s2)c1 [Cpd4, 2-(5-(3-ethoxyphenyl)thiophen-2-yl)-6-fluoroquinoline-4-carboxylic acid]
7.41 µM	–	0.524 µM	CCOc1ccc(-c2csc(-c3cc(C(=O)O)c4cc(F)ccc4n3)n2)cc1 [Cpd5, 2-(4-(4-ethoxyphenyl)thiazol-2-yl)-6-fluoroquinoline-4-carboxylic acid]
> 10 µM	–	13.9 µM	CCOc1ccc(-c2cnc(-c3cc(C(=O)O)c4cc(F)ccc4n3)s2)cc1 [Cpd6, 2-(5-(4-ethoxyphenyl)thiazol-2-yl)-6-fluoroquinoline-4-carboxylic acid]
4.92 µM	–	0.085 µM	CCOc1ccc(-c2nc(-c3cc(C(=O)O)c4cc(F)ccc4n3)cs2)cc1 [Cpd7]
> 10 µM	–	0.472 µM	CCOc1ccc(-c2ncc(-c3cc(C(=O)O)c4cc(F)ccc4n3)s2)cc1 [Cpd8, 2-(2-(4-ethoxyphenyl)thiazol-5-yl)-6-fluoroquinoline-4-carboxylic acid]

Reference: patent US20230089524A1, “COMPOSITIONS FOR USE IN THE INHIBITION OF DIHYDROOROTATE DEHYDROGENASE” (OHIO STATE INNOVATION FOUNDATION, priority 2019, published 2023)
